# From ChEMBL document CHEMBL1121427, “Decomposition of pharmacological activity indices into mutually independent components using principal component analysis” (J Med Chem, 1980)
# Experiments:
# [1] = -Log C was determined by performing the electroshock minimum test; type: ADME; design: unit not given here
# [2] = -Log C was determined by performing the foot shock test; type: ADME; design: unit not given here
# [3] = -Log C was determined by performing the incl screen test; type: ADME; design: unit not given here
# [4] = -Log C was determined by performing the maximum electroshock test; type: ADME; design: unit not given here
# [5] = -Log C was determined by performing the pentylenetetrazole test; type: ADME; design: unit not given here
# Aspergillus niger = assay: The compound was evaluated for activity against Aspergillus niger; type: functional
# Trichophyton benhamiae = assay: The compound was evaluated for activity against Trichophyton mentagrophytes; type: functional, Arthroderma benhamiae
# Aspergillus oryzae = assay: The compound was evaluated for activity against Aspergillus oryzae; type: functional; design: unit not given here
# Albifimbria verrucaria = assay: The compound was evaluated for activity against Myrothecium verrucaria; type: functional; design: unit not given here
# Trichoderma viride = assay: The compound was evaluated for activity against Trichoderma viride; type: functional; design: unit not given here
# Enterococcus faecalis = assay: The compound was evaluated for activity against strain Streptococcus faecalis; type: functional; design: unit not given here
# Bacillus subtilis = assay: Inhibitory activity against Bacillus subtilis; type: functional; design: unit not given here
# Staphylococcus aureus = assay: The compound was evaluated for activity against strain Micrococcus aureus; type: functional; design: unit not given here
# Streptococcus pyogenes = assay: The compound was evaluated for activity against strain Streptococcus hemolyticus; type: functional; design: unit not given here
SMILES,-Log C (Aspergillus niger) [mM l-1],-Log C (Trichophyton benhamiae) [mM l-1],-Log C (Aspergillus oryzae),-Log C (Albifimbria verrucaria),-Log C (Trichoderma viride),-Log C (Enterococcus faecalis),-Log C (Bacillus subtilis),-Log C (Staphylococcus aureus),-Log C (Streptococcus pyogenes),other results
CC(C)(C)N1C(=O)CN=C(c2ccccc2)c2cc(Cl)ccc21,,,,,,,,,,-Log C [1]: 0.39; -Log C [2]: 0.51; -Log C [3]: 0.19; -Log C [4]: 0.26; -Log C [5]: 0.39
CN(C)c1ccc2c(c1)C(c1ccccc1)=NCC(=O)N2C,,,,,,,,,,-Log C [1]: 0.06; -Log C [2]: 0.87; -Log C [3]: 0.29; -Log C [4]: 0.5; -Log C [5]: 1.7
Cc1ccc2c(c1)C(c1ccccc1)=NCC(=O)N2,,,,,,,,,,-Log C [1]: 0.51; -Log C [2]: 0.4; -Log C [3]: 0.4; -Log C [4]: 1.75; -Log C [5]: 1.55
O=[N+]([O-])c1ccc2cccnc2c1O,0.48,1.8,0.28,1.13,1.28,,,,,
Oc1c(Cl)cc(Br)c2cccnc12,2.11,2.41,1.82,2.41,2.41,,,,,
Oc1c(F)cc(F)c2cccnc12,1.36,1.66,,,,,,,,
O=[N+]([O-])c1cc(Br)c(O)c2ncccc12,1.01,2.43,0.66,1.72,1.32,,,,,
Oc1c(Cl)ccc2cccnc12,1.77,2.25,,,,,,,,
Oc1c(Br)cc(Cl)c2cccnc12,1.92,2.11,,,,,,,,
N#Cc1ccc2c(c1)C(c1ccccc1)=NCC(=O)N2,,,,,,,,,,-Log C [1]: 0.41; -Log C [2]: 0.82; -Log C [3]: 0.54; -Log C [4]: 0.89; -Log C [5]: 2.3
O=[N+]([O-])c1cc(Cl)c(O)c2ncccc12,0.89,2.35,,,,,,,,
O=[N+]([O-])c1cc(I)c2cccnc2c1O,0.7,1.89,0.57,0.6,0.89,,,,,
O=C1CN=C(c2ccccc2)c2cc(C(F)(F)F)ccc2N1 [RO-052904],,,,,,,,,,-Log C [1]: 1.16; -Log C [2]: 1.48; -Log C [3]: 1.48; -Log C [4]: 1.78; -Log C [5]: 2.48
Oc1c(I)ccc2cccnc12,2.13,2.43,1.48,2.43,2.43,,,,,
Oc1c(F)cc(Cl)c2cccnc12,2,2.3,1.7,2.29,2.29,,,,,
Oc1c(Cl)cc(F)c2cccnc12,1.82,2.3,1.7,2.29,2.29,,,,,
Oc1c(I)cc(Br)c2cccnc12,2.07,2.24,1.24,2.24,1.96,,,,,
Cc1ccccc1C1=NCC(=O)Nc2ccc(Cl)cc21,,,,,,,,,,-Log C [1]: 0.19; -Log C [2]: 0.45; -Log C [3]: 0.28; -Log C [4]: 1.13; -Log C [5]: 1.57
Oc1c(F)cc(Br)c2cccnc12,1.92,2.39,1.62,2.39,1.92,,,,,
Oc1c(F)cc(I)c2cccnc12,2,2.46,1.46,2.46,2,,,,,
O=[N+]([O-])c1cc(F)c(O)c2ncccc12,0.44,2.32,0.68,1.21,1.32,,,,,
O=[N+]([O-])c1cc(Cl)c2cccnc2c1O,1.15,1.89,,,,,,,,
CCCCN(CCCC)C(=O)COc1cc2c(O)c3c(O)c(C)c4c(c13)C(=O)C(C)(O/C=C/C(OC)C(C)C(OC(C)=O)C(C)C(O)C(C)C(O)C(C)/C=C/C=C(/C)C(=O)N2)O4 (configuration not stated),,,,,,7.46,7.16,8.46,7.86,

SMILES,-Log C (Aspergillus niger) [mM l-1],-Log C (Trichophyton benhamiae) [mM l-1],-Log C (Aspergillus oryzae),-Log C (Albifimbria verrucaria),-Log C (Trichoderma viride),-Log C (Enterococcus faecalis),-Log C (Bacillus subtilis),-Log C (Staphylococcus aureus),-Log C (Streptococcus pyogenes),other results
CCCN(C)C(=O)COc1cc2c(O)c3c(O)c(C)c4c(c13)C(=O)C(C)(O/C=C/C(OC)C(C)C(OC(C)=O)C(C)C(O)C(C)C(O)C(C)/C=C/C=C(/C)C(=O)N2)O4 (configuration not stated),,,,,,7.31,6.65,7.91,8.13,
O=[N+]([O-])c1cc(F)c2cccnc2c1O,1.06,1.72,0.85,1.02,1.06,,,,,
Oc1c(Br)cc(I)c2cccnc12,2.07,2.24,1.85,2.24,2.24,,,,,
O=[N+]([O-])c1cc(Br)c2cccnc2c1O,0.62,2.43,0.66,1.13,1.13,,,,,
COC1/C=C/OC2(C)Oc3c(C)c(O)c4c(O)c(cc(OCC(=O)Nc5ccc(Cl)cc5)c4c3C2=O)NC(=O)/C(C)=C\C=C\C(C)C(O)C(C)C(O)C(C)C(OC(C)=O)C1C (configuration not stated),,,,,,6.39,5.64,6.54,6.86,
Oc1c(I)cc(Cl)c2cccnc12 [CLIOQUINOL],2.01,2.01,,,,,,,,
COC1/C=C/OC2(C)Oc3c(C)c(O)c4c(O)c(cc(OCC(=O)N5C(C)COCC5C)c4c3C2=O)NC(=O)/C(C)=C\C=C\C(C)C(O)C(C)C(O)C(C)C(OC(C)=O)C1C (configuration not stated),,,,,,6.98,6.15,7.93,7.76,
COC1/C=C/OC2(C)Oc3c(C)c(O)c4c(O)c(cc(OCC(=O)N(C)CCC#N)c4c3C2=O)NC(=O)/C(C)=C\C=C\C(C)C(O)C(C)C(O)C(C)C(OC(C)=O)C1C (configuration not stated),,,,,,6.05,5.74,6.97,6.97,
Oc1c(Br)ccc2cccnc12,1.89,2.35,1.89,2.35,2.35,,,,,
COC1/C=C/OC2(C)Oc3c(C)c(O)c4c(O)c(cc(OCC(=O)N5CCCC5)c4c3C2=O)NC(=O)/C(C)=C\C=C\C(C)C(O)C(C)C(O)C(C)C(OC(C)=O)C1C (configuration not stated),,,,,,6.34,5.73,7.26,8.21,
Oc1c(I)cc(F)c2cccnc12,2,2.46,2.62,1.16,2.46,,,,,
Nc1cc(I)c2cccnc2c1O,1.15,2.21,1.03,1.51,1.21,,,,,
Oc1c(Br)cc(F)c2cccnc12,1.92,2.39,1.67,2.39,2.39,,,,,
COC1/C=C/OC2(C)Oc3c(C)c(O)c4c(O)c(cc(OCC(=O)NC(C)(C)C)c4c3C2=O)NC(=O)/C(C)=C\C=C\C(C)C(O)C(C)C(O)C(C)C(OC(C)=O)C1C (configuration not stated),,,,,,5.83,5.42,6.73,6.43,
Nc1cc(Br)c2cccnc2c1O,0.57,1.6,0.68,0.96,0.92,,,,,
COC1/C=C/OC2(C)Oc3c(C)c(O)c4c(O)c(cc(OCC(=O)N(C)C)c4c3C2=O)NC(=O)/C(C)=C\C=C\C(C)C(O)C(C)C(O)C(C)C(OC(C)=O)C1C (configuration not stated),,,,,,6.02,5.72,7.12,7.89,
COC1/C=C/OC2(C)Oc3c(C)c(O)c4c(O)c(cc(OCC(=O)Nc5ccc(Br)cc5)c4c3C2=O)NC(=O)/C(C)=C\C=C\C(C)C(O)C(C)C(O)C(C)C(OC(C)=O)C1C (configuration not stated),,,,,,6.56,5.78,6.48,6.66,
CCNC(=O)COc1cc2c(O)c3c(O)c(C)c4c(c13)C(=O)C(C)(O/C=C/C(OC)C(C)C(OC(C)=O)C(C)C(O)C(C)C(O)C(C)/C=C/C=C(/C)C(=O)N2)O4 (configuration not stated),,,,,,6.2,5.4,6.99,7.5,
CNC(=O)COc1cc2c(O)c3c(O)c(C)c4c(c13)C(=O)C(C)(O/C=C/C(OC)C(C)C(OC(C)=O)C(C)C(O)C(C)C(O)C(C)/C=C/C=C(/C)C(=O)N2)O4 (configuration not stated),,,,,,5.89,7.11,6.68,5.09,
COC1/C=C/OC2(C)Oc3c(C)c(O)c4c(O)c(cc(OCC(=O)N(C)C(C)(C)C)c4c3C2=O)NC(=O)/C(C)=C\C=C\C(C)C(O)C(C)C(O)C(C)C(OC(C)=O)C1C (configuration not stated),,,,,,7.62,6.66,8.62,8.31,
COC1/C=C/OC2(C)Oc3c(C)c(O)c4c(O)c(cc(OCC(=O)N5C(C)CCC5C)c4c3C2=O)NC(=O)/C(C)=C\C=C\C(C)C(O)C(C)C(O)C(C)C(OC(C)=O)C1C (configuration not stated),,,,,,7.45,6.67,8.22,8.22,
COC1/C=C/OC2(C)Oc3c(C)c(O)c4c(O)c(cc(OCC(=O)N5CCOCC5)c4c3C2=O)NC(=O)/C(C)=C\C=C\C(C)C(O)C(C)C(O)C(C)C(OC(C)=O)C1C (configuration not stated),,,,,,5.84,5.74,6.44,7.26,
CCCCN(CC)C(=O)COc1cc2c(O)c3c(O)c(C)c4c(c13)C(=O)C(C)(O/C=C/C(OC)C(C)C(OC(C)=O)C(C)C(O)C(C)C(O)C(C)/C=C/C=C(/C)C(=O)N2)O4 (configuration not stated),,,,,,7.62,6.27,8.62,8.15,
